The source of these data is patent US8865865B2, “N-terminally modified tetrapeptide derivatives having a C-terminal arginine mimetic” (Philipps-Universitat Marburg, priority 2008, dated 2014).

Like-named read-outs stand apart in the source and are kept apart here. Square brackets hold non-standard residues; d marks the D form. Peptide text beside a SMILES is read from it. * marks the point of attachment. hArg = N=C(N)NCCCC[C@H](N)C(=O)O; Agmatine = N=C(N)NCCCCN*; PhAc = O=C(Cc1ccccc1)*

Data set [1] has as its target T1, Recombinantly produced human furin (Homo sapiens, UniProt P09958).
T1 construct: made in house
Briefly: Enzyme kinetic studies to determine the inhibitory effect on furin (fluorogenic substrate Pyr-Arg-Thr-Lys-Arg-AMC). It is filed as biochemical. As for the experimental part:
The determination of the inhibitory effect was carried out with a fluorescence plate reader Safire^2 from the Tecan company (λEx=380 nm, λEm=460 nm) and Pyr-Arg-Thr-Lys-Arg-AMC (Bachem, No: I-1650) as the substrate. Recombinantly produced human furin (Kacprzak, M. M. et al., J. Biol. Chem., 2004, 279, 36788-36794) was used in the measurement assay in a concentration of approx. 0.95 nM.
To determine the inhibition constants, the inhibitor concentration was varied at least over the range of an order of magnitude at a constant substrate concentration (12.5 μM in the assay), and, respectively, the steady-state velocity was determined. Km and Vmax were determined by means of v/S characteristics parallel to each inhibitor measurement. The calculation of Ki values was carried out through adjustment of the determined velocities as a function of the inhibitor concentration to the velocity equation for competitively, reversibly-binding inhibitors: […]

A further data set has as its target furin (Homo sapiens, UniProt P09958). As to conditions: Kacprzak et al., J. Biol. Chem. 2004; read-out: inhibition constant (Ki value) for furin; cited from earlier work.
Data set [2] deals with avian influenza virus (FPV) A/FPV/Rostock/34 (H7N1). It is filed as cell-based, influenza virus A/FPV/Rostock/34 (H7N1). As to conditions: 25 μM inhibitor, MDCK cells, MOI 10^-5, 72 h.
In another data set the test system is MDCK cells. Particulars: 25 μM inhibitor, 72 h.
[3] abbreviates: Table 2, substrate 12.5 μM, furin approx. 0.95 nM, competitive reversible model, read-out: Ki value for the inhibition of furin.
[4] abbreviates: Table 3, methods as in practical embodiment 6, read-out: Ki for the inhibition of furin.

T1 sequence (P09958 108-794): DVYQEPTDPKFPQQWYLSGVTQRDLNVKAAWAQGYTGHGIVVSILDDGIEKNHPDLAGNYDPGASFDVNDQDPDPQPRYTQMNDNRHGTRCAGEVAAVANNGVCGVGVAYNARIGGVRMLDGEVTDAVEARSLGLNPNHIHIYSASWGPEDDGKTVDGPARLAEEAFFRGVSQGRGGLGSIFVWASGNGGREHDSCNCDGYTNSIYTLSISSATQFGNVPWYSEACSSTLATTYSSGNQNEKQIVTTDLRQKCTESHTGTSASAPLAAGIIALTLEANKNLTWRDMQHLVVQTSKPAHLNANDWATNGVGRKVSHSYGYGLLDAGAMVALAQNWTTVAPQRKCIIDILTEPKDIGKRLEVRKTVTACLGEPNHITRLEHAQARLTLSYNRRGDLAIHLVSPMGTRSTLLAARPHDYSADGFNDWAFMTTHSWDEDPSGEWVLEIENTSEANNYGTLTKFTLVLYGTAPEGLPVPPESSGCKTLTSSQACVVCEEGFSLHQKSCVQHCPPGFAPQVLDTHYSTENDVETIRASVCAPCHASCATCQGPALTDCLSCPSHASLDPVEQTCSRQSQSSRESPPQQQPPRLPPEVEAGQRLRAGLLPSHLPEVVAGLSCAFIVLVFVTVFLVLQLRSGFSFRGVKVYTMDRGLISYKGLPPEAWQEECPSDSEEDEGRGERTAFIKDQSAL
Sequence of furin (P09958 108-794, species assumed): as the sequence (P09958 108-794) above

As to `CC(C)C(NC(=O)C(CCCNC(=N)N)NC(=O)Cc1ccccc1)C(=O)NC(CCCNC(=N)N)C(=O)NCCCCN` (stereo not drawn) [Inhibitor 2a], in data set [1] (setting [3]), the inhibitory constant (Ki) came to 25000 nM.
Take hexa-D-arginine-amide: the inhibitory constant (Ki) at furin is 7.6 nM.
On to `CCCCCCCCCCCCCC(=O)NC(CCCNC(=N)N)C(=O)NC(C(=O)NC(CCCNC(=N)N)C(=O)NCc1ccc(C(=N)N)cc1)C(C)C` (stereo not drawn) [Inhibitor 22], for which the inhibition constant (Ki) in data set [1] (setting [4]) is 56.9 nM.
On the same count and under the same terms, with `CC(C)C(NC(=O)C(CCCNC(=N)N)NC(=O)Cc1ccccc1)C(=O)NC(CCCNC(=N)N)C(=O)NCC1CCNCC1` (stereo not drawn) [Inhibitor 15] the figure was 9710 nM.
Still for that read-out and setting: with `CC(C)C(NC(=O)C(N)CCCNC(=N)N)C(=O)NC(CCCNC(=N)N)C(=O)NCc1ccc(C(=N)N)cc1` (stereo not drawn) [Inhibitor 26] the figure was 7.6 nM; with `CCCC(=O)NC(CCCNC(=N)N)C(=O)NC(C(=O)NC(CCCNC(=N)N)C(=O)NCc1ccc(C(=N)N)cc1)C(C)C` (stereo not drawn) [Inhibitor 17], 0.77 nM.
As for `N=C(N)NCCCC(NC(=O)Cc1ccccc1)C(=O)NC(CN)C(=O)NC(CCCCN)C(=O)NCc1ccc(C(=N)N)cc1` (stereo not drawn) [Inhibitor 39], the inhibition constant (Ki) in data set [1] (setting [4]) stood at 3.7 nM.
On to `CC(C)C(NC(=O)C(CCCNC(=N)N)NC(=O)Cc1ccccc1)C(=O)NC(CCCNC(=N)N)C(=O)NCC1CCNCC1` (stereo not drawn) [Inhibitor 3a], for which, in data set [1] (setting [3]), the Ki was 10000 nM.
Consider Nona-D-arginine-amide, for which, on furin, the Ki was 1.3 nM.
In the case of `Cc1ccc(S(=O)(=O)NC(CCCNC(=N)N)C(=O)NC(C(=O)NC(CCCNC(=N)N)C(=O)NCc2ccc(C(=N)N)cc2)C(C)C)cc1` (stereo not drawn) [Inhibitor 29], the Ki in data set [1] (setting [4]) came to 4.8 nM.
Regarding `CC(C)C(NC(=O)C(CCCNC(=N)N)NC(=O)Cc1ccccc1)C(=O)NC(CCCCN)C(=O)NCCCCN` (stereo not drawn) [Inhibitor 14], the Ki in data set [1] (setting [4]) was determined as 5410 nM.
Same read-out and setting: with `CCCCCCCCCCCC(=O)NC(CCCNC(=N)N)C(=O)NC(C(=O)NC(CCCNC(=N)N)C(=O)NCc1ccc(C(=N)N)cc1)C(C)C` (stereo not drawn) [Inhibitor 21] the figure was 6.7 nM.
Turning to `CC(C)[C@H](NC(=O)[C@H](CCCNC(=N)N)NC(=O)Cc1ccccc1)C(=O)N[C@@H](CCCNC(=N)N)C(=O)NCc1ccc(C(=N)N)cc1` [Inhibitor 1], the “delay of virus release in relation to the untreated control group” value in data set [2] was “about 24 h”. Moreover, in the data set with MDCK cells, the “vitality of the cells” value is on record as “not influenced”.
As to `CCCCCC(=O)NC(CCCNC(=N)N)C(=O)NC(C(=O)NC(CCCNC(=N)N)C(=O)NCc1ccc(C(=N)N)cc1)C(C)C` (stereo not drawn) [Inhibitor 18], the Ki in data set [1] (setting [4]) stood at 0.82 nM.
The same measure, in the same setting: the same measure for `CC(C)C(NC(=O)C(CCCNC(=N)N)NC(=O)Cc1ccc(Cl)c(Cl)c1)C(=O)NC(CCCNC(=N)N)C(=O)NCc1ccc(C(=N)N)cc1` (stereo not drawn) [Inhibitor 28]: 1.2 nM.
Regarding `CC(C)C(NC(=O)C(CCCNC(=N)N)NC(=O)Cc1ccccc1)C(=O)NC(CCCNC(=N)N)C(=O)NCCCN` (stereo not drawn) [Inhibitor 4a], the Ki in data set [1] (setting [3]) was found to be 1300 nM.
The same measure, in the same setting: with `CC(C)[C@H](NC(=O)[C@H](CCCNC(=N)N)NC(=O)Cc1ccccc1)C(=O)N[C@@H](CCCNC(=N)N)C(=O)NCCCCNC(=N)N` [Inhibitor 2] (PhAc-Arg-Val-Arg-Agmatine) the figure was 77 nM; with `CC(C)C(NC(=O)C(CCCNC(=N)N)NC(=O)Cc1ccccc1)C(=O)NC(CCCNC(=N)N)C(=O)NCCCNC(=N)N` (stereo not drawn) [Inhibitor 4], 97 nM.
Same read-out and setting: the same measure for `CC(C)[C@H](NC(=O)[C@H](CCCNC(=N)N)NC(=O)Cc1ccccc1)C(=O)N[C@@H](CCCCNC(=N)N)C(=O)NCCCCNC(=N)N` [Inhibitor 11] (PhAc-Arg-Val-[hArg]-Agmatine): 47 nM; for `CC(C)[C@H](NC(=O)[C@H](CCCNC(=N)N)NC(=O)Cc1ccccc1)C(=O)N[C@@H](CCCCN)C(=O)NCCCCNC(=N)N` [Inhibitor 10] (PhAc-Arg-Val-Lys-Agmatine): 49 nM.
On to `CC(=O)NC(CCCNC(=N)N)C(=O)NC(C(=O)NC(CCCNC(=N)N)C(=O)NCCCCN)C(C)C` (stereo not drawn) [Inhibitor 12], for which the inhibitory constant (Ki) in data set [1] (setting [4]) is 41200 nM.
Consider `CC(C)C(NC(=O)C(CCCNC(=N)N)NC(=O)Cc1ccccc1)C(=O)NC(CCCCN)C(=O)NCc1ccc(C(=N)N)cc1` (stereo not drawn) [Inhibitor 33], for which the Ki in data set [1] (setting [4]) came out at 1.5 nM.
For `CCCCCCCC(=O)NC(CCCNC(=N)N)C(=O)NC(C(=O)NC(CCCNC(=N)N)C(=O)NCc1ccc(C(=N)N)cc1)C(C)C` (stereo not drawn) [Inhibitor 19], in data set [1] (setting [4]), the Ki was determined as 0.82 nM.

A word on the Ki: it is the dissociation constant of the complex between target and ligand, obtained from inhibition or displacement.
